Data set [1] addresses T1, recombinant human 5-HT6 receptor (Homo sapiens, UniProt P50406).
T1 construct: expressed in transfected cells
Description: Radioligand binding studies, 5-HT6 ligand affinity ([3H]LSD competition). The note with it: [3H]LSD displacement, membranes of HEK293 cells expressing the receptor, pH 7.4, 37° C.; read-out: pKi for the 5-HT6 receptor (converted). Here is the method:
(§1) This example illustrates in vitro radioligand binding studies of compound of formula I.
(§2) The binding activity of compounds of this invention in vitro was determined as follows. Duplicate determinations of 5-HT6 ligand affinity were made by competing for binding of [^3H]LSD in cell membranes derived from HEK293 cells stably expressing recombinant human 5-HT6 receptor. Duplicate determinations of 5-HT2A ligand affinity were made by competing for binding of [^3H]Ketanserin (3-(2-(4-(4-fluorobenzoyl)piperidinol)ethyl)-2,4(1H,3H)-quinazolinedione) in cell membranes derived from CHO-K1 cells stably expressing recombinant human 5-HT2A receptor. Membranes were prepared from HEK 293 cell lines by the method described by Monsma et al., Molecular Pharmacology, Vol. 43 pp. 320-327 (1993), and from CHO-K1 cell lines as described by Bonhaus et al., Br J. Pharmacol. June; 115(4):622-8 (1995).
(§3) For estimation of affinity at the 5-HT6 receptor, all determinations were made in assay buffer containing 50 mM Tris-HCl, 10 mM MgSO4, 0.5 mM EDTA, 1 mM ascorbic acid, pH 7.4 at 37° C., in a 250 microliter reaction volume. […]
(§4) Assay tubes containing [^3H] […] LSD or [^3H]Ketanserin were determined as radioactive counts per minute using Packard TopCount.
(§5) Displacement of [^3H]LSD or [^3H]Ketanserin from the binding sites was quantified by fitting concentration-binding data to a 4-parameter logistic equation: […]

Data set [2] concerns the target T2, recombinant human 5-HT2A receptor (Homo sapiens, UniProt P28223).
T2 construct: expressed in transfected cells
Description: Radioligand binding studies, 5-HT2A ligand affinity ([3H]Ketanserin competition). Conditions: [3H]Ketanserin displacement, membranes of CHO-K1 cells expressing the receptor, pH 7.4, 32° C.; read-out: pKi for the 5-HT2A receptor (converted). Here is the method:
as §1, §2, §3, §4, §5

Structures can show the parent of a compound that is named as a salt.

T2 sequence (P28223 whole entry): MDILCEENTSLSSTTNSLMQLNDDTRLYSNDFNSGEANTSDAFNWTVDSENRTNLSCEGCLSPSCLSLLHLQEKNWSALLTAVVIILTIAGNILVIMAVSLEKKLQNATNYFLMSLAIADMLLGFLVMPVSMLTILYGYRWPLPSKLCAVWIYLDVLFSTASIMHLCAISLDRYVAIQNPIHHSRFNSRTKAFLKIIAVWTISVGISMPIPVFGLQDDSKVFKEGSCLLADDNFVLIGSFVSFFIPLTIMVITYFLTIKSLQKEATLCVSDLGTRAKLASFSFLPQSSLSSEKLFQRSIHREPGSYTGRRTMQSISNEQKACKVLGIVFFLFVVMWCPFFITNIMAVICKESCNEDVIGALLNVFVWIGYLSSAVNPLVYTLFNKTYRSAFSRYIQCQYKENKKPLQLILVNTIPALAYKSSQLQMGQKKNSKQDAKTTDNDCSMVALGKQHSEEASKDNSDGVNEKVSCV
T1 sequence (P50406 whole entry): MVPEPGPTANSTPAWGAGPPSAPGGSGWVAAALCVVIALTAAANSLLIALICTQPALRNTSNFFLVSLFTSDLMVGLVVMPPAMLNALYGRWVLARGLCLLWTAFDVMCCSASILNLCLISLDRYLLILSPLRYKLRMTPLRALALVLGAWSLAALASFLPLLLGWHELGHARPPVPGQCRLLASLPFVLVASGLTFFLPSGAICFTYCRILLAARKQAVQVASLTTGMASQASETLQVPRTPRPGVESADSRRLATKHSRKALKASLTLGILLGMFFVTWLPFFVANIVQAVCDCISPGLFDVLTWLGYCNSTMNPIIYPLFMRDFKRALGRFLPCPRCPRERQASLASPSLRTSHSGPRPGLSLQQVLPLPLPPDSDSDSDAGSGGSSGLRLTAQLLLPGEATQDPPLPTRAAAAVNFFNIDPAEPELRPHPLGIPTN

One may read the melting point as the temperature, or range, at which the solid turns liquid. `CCS(=O)(=O)c1cccc(S(=O)(=O)c2ccc(C3CCNC3)c(O)c2)c1` (centres unmarked) (as salt: HCl) [Compound 20, 5-(3-Ethanesulfonyl-benzenesulfonyl)-2-pyrrolidin-3-yl-phenol] had a melting point of 124.5 to 126.7 °C.
The compound `Cc1cc(S(=O)(=O)c2ccc(O)c(Cl)c2)ccc1C1CCNC1` (centres unmarked) (as salt: HCl) [Compound 32, 2-Chloro-4-(3-methyl-4-pyrrolidin-3-yl-benzenesulfonyl)-phenol] had a melting point of 110 to 112.9 °C.
For the compound `O=S(=O)(c1cccc(F)c1)c1ccc([C@@H]2CCNC2)c(O)c1` (as salt: HCl) [Compound 35, 5-(3-Fluoro-benzenesulfonyl)-2-(S)-pyrrolidin-3-yl-phenol], the melting point fell in the range of 239 to 241 °C.
On the same count and under the same terms, as for `Cc1cc(S(=O)(=O)c2ccc(O)cc2)ccc1C1CCN(C)C1` (centres unmarked) (as salt: HCl) [Compound 51, 4-[3-Methyl-4-(1-methyl-pyrrolidin-3-yl)-benzenesulfonyl]-phenol], the figure is 186 to 187.5 °C.
As to `CN1CC[C@@H](c2ccc(S(=O)(=O)c3ccc(O)cc3)cc2F)C1` [4-[3-Fluoro-4-(1-methyl-(S)-pyrrolidin-3-yl)-benzenesulfonyl]-phenol], in data set [1], the Ki was roughly 0.1 nM.
Consider `CCSc1cccc(S(=O)(=O)c2ccc(C3CCNC3)c(O)c2)c1` (centres unmarked) [5-(3-Ethylsulfanyl-benzenesulfonyl)-2-pyrrolidin-3-yl-phenol], for which the Ki in data set [2] was roughly 0.891 nM.
`Cc1cc(S(=O)(=O)c2ccc(O)c(C(C)C)c2)ccc1C1CCNC1` (centres unmarked) [Compound 85, 2-Isopropyl-4-(3-methyl-4-pyrrolidin-3-yl-benzenesulfonyl)-phenol]: the melting point was 125 to 128 °C.
The same measure, in the same setting: for `Cc1cc(S(=O)(=O)c2ccccc2)ccc1[C@@H]1CCN(S(C)(=O)=O)C1` [Compound 115, 3-(4-Benzenesulfonyl-2-methyl-phenyl)-1-methanesulfonyl-(S)-pyrrolidine] the value was 56 to 58 °C.

For the origin of these results see patent publication US7776910B2, “Arylsulfonyl pyrrolidines as 5-HT6 inhibitors” (Roche Palo Alto LLC, priority 2006, dated 2010).
